Results reported in patent US20230295119A1, “SUBSTITUTED PYRIDINES FOR THE TREATMENT OF INFLAMMATORY DISEASES” (GOSSAMER BIO SERVICES, INC., priority 2020, published 2023).

Tests used:
human JAK2 = human JAK2 (Homo sapiens (Human), UniProt O60674); experiment: JAK2 TR-FRET kinase assay; assay type: biochemical; settings: JAK2 0.025 nM
TYK2 JH2 domain = TYK2 JH2 domain (Homo sapiens (Human), UniProt P29597); experiment: TYK2 JH2 NanoBRET assay; assay type: binding; settings: Table 20, read-out: TYK2 IC50
Procedure, shortened: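 HEK293T cells transiently expressing NanoLuc-TYK2 JH2 fusion, incubated 2 h with compound and NanoBRET K10 tracer (0.5 µM final). Target engagement read as acceptor/donor BRET ratio after Nano-Glo substrate plus extracellular NanoLuc inhibitor.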

human JAK3 = human JAK3 (Homo sapiens (Human), UniProt P52333); experiment: JAK3 TR-FRET kinase assay; assay type: biochemical; settings: JAK3 0.0125 nM
human JAK1 = human JAK1 (Homo sapiens (Human), UniProt P23458); experiment: JAK1 TR-FRET kinase assay; assay type: biochemical; settings: TR-FRET, JAK1 2.5 nM
human JAK1, sequence (P23458 whole entry): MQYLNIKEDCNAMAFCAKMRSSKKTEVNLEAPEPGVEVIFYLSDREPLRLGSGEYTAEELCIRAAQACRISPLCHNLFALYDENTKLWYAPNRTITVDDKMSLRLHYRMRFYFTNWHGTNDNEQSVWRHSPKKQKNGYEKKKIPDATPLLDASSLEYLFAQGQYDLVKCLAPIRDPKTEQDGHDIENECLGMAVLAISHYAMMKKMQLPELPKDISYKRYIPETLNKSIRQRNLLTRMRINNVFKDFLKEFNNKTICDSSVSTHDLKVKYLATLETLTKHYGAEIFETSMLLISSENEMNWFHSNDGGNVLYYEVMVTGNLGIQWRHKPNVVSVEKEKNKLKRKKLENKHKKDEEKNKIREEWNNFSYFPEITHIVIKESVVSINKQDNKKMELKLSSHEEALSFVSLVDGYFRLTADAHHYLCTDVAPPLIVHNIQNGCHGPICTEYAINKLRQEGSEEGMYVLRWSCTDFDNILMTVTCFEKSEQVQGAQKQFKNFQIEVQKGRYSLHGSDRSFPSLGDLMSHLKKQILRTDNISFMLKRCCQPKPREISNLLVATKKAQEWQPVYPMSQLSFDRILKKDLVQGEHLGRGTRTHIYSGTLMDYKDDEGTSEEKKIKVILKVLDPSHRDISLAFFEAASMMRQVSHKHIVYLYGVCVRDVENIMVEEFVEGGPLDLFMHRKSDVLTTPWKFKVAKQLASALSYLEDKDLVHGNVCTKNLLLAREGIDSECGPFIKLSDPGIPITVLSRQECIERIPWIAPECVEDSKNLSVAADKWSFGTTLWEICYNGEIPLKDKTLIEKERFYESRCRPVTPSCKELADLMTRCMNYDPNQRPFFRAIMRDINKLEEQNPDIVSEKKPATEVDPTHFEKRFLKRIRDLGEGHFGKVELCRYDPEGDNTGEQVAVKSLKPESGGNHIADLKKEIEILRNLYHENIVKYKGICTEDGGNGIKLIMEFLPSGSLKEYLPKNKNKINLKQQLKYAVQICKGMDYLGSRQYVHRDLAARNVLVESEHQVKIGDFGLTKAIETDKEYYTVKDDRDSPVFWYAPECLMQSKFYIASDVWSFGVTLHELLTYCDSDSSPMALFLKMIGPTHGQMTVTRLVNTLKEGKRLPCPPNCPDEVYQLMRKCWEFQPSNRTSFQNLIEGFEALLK

TYK2 JH2 domain, sequence (P29597 589-875): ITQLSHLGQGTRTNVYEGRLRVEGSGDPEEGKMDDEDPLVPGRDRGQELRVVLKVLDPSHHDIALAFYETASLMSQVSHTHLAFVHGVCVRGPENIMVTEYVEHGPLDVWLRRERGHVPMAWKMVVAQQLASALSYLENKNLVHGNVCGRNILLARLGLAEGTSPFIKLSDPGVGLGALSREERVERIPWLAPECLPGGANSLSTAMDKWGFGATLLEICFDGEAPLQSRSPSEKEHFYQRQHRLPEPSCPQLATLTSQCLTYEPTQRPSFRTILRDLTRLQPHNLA
human JAK2, sequence (O60674 whole entry, the tested form may be a part): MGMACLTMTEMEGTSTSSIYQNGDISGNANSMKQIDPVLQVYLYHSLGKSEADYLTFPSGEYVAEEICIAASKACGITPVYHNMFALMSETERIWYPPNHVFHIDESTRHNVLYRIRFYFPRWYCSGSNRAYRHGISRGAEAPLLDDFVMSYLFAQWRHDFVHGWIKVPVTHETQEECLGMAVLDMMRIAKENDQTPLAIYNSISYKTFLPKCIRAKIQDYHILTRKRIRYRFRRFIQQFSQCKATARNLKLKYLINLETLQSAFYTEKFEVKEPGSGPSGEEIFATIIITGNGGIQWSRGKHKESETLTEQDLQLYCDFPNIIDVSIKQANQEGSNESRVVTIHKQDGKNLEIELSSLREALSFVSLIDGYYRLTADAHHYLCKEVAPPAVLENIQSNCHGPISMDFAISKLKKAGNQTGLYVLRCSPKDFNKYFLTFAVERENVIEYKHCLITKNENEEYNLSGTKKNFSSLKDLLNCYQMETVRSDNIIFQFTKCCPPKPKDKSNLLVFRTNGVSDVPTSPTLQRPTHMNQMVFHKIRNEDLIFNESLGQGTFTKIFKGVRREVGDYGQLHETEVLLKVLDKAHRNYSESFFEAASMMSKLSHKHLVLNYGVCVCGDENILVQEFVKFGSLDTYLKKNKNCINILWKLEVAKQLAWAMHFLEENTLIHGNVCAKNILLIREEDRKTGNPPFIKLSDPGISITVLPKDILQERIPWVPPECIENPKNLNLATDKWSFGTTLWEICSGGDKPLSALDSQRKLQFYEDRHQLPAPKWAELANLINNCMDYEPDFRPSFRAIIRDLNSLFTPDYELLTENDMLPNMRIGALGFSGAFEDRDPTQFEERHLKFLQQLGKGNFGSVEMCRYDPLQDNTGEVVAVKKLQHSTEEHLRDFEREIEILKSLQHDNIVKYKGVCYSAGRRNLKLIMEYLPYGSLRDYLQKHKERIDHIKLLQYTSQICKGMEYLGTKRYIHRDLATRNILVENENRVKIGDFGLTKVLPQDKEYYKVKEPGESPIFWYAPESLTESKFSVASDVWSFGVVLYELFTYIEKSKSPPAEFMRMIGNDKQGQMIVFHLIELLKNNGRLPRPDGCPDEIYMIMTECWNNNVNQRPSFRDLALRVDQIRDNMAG
human JAK3, sequence (P52333 whole entry): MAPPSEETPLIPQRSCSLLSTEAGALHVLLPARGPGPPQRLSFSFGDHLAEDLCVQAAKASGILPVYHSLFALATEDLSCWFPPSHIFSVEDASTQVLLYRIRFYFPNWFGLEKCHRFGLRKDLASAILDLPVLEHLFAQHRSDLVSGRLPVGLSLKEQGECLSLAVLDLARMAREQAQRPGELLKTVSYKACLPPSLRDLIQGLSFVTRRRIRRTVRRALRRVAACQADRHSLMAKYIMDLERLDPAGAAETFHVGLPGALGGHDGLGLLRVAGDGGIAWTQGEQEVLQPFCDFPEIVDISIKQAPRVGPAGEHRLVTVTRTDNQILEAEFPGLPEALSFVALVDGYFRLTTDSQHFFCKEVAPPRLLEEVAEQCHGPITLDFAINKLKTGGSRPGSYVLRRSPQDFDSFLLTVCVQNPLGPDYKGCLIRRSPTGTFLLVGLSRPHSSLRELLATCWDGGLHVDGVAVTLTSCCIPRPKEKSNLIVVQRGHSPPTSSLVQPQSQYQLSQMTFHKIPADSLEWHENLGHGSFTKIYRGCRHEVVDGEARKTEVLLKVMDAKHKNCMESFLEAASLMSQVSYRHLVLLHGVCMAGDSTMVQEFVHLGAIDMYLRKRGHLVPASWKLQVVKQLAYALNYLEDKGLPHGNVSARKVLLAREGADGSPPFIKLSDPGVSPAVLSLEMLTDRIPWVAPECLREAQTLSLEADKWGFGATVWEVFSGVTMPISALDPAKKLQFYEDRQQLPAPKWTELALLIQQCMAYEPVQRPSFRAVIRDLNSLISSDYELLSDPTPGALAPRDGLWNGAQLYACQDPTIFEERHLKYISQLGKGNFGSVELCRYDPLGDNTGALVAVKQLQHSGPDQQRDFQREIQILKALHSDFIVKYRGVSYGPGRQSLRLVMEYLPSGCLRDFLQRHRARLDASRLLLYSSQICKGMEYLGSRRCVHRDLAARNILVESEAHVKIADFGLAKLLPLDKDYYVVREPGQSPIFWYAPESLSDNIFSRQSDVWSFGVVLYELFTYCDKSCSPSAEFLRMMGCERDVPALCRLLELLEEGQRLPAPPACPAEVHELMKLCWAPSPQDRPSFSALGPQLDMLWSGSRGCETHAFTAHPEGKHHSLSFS

Compound	IC50 (human JAK2)	IC50 (TYK2 JH2 domain)	IC50 (human JAK3)	IC50 (human JAK1)
CCC(=O)c1cnc(Nc2ccc(-c3ncn(C)n3)cn2)cc1Nc1cccc(-c2ncn(C)n2)c1OC [Compound 15C]	≥ 500 nM	< 5 nM	≥ 500 nM	≥ 500 nM
CCC(=O)c1cnc(Nc2ccc(P(C)(C)=O)cn2)cc1Nc1cccc(-c2ncn(C)n2)c1OC [Compound 15DD]	≥ 500 nM	5 to 50 nM	≥ 500 nM	≥ 500 nM
CCC(=O)c1cnc(Nc2ccc(-c3cnn(C)c3)cn2)cc1Nc1cccc(-c2ncn(C)n2)c1OC [Compound 15D]	≥ 500 nM	< 5 nM	≥ 500 nM	≥ 500 nM
CCC(=O)c1cnc(Nc2cc(-c3cn(C)cn3)ccn2)cc1Nc1cccc(-c2ncn(C)n2)c1OC [Compound 15E]	≥ 500 nM	< 5 nM	≥ 500 nM	≥ 500 nM
CCC(=O)c1cnc(Nc2cc(-c3ncn(C)n3)ccn2)cc1Nc1cccc(-c2ncn(C)n2)c1OC [Compound 15F]	≥ 500 nM	< 5 nM	≥ 500 nM	≥ 500 nM
CCC(=O)c1cnc(Nc2cc(-c3cnn(C)c3)ccn2)cc1Nc1cccc(-c2ncn(C)n2)c1OC [Compound 15G]	≥ 500 nM	< 5 nM	≥ 500 nM	≥ 500 nM
CCC(=O)c1cnc(Nc2ccc(-n3cccn3)cn2)cc1Nc1cccc(-c2ncn(C)n2)c1OC [Compound 15H]	≥ 500 nM	< 5 nM	≥ 500 nM	≥ 500 nM
CCC(=O)c1cnc(Nc2ccc(-n3ccnc3)cn2)cc1Nc1cccc(-c2ncn(C)n2)c1OC [Compound 15I]	≥ 500 nM	< 5 nM	≥ 500 nM	≥ 500 nM
CCC(=O)c1cnc(Nc2ccc(-c3cn(C)cn3)cn2)cc1Nc1nccc(-c2ncn(C)n2)c1OC [Compound 15J]	≥ 500 nM	< 5 nM	≥ 500 nM	≥ 500 nM
COc1c(Nc2cc(Nc3ccc(-c4cn(C)cn4)cn3)ncc2C(=O)C2CC2)cccc1-c1ncn(C)n1 [Compound 15K]	≥ 500 nM	5 to 50 nM	≥ 500 nM	≥ 500 nM
COc1c(-c2ncn(C)n2)ccnc1Nc1cc(Nc2ccc(-c3cn(C)cn3)cn2)ncc1C(=O)C1CC1 [Compound 15L]	≥ 500 nM	5 to 50 nM	≥ 500 nM	≥ 500 nM
CCC(=O)c1cnc(Nc2ccc(-c3ncn(C)n3)cn2)cc1Nc1nccc(-c2ncn(C)n2)c1OC [Compound 15M]	≥ 500 nM	5 to 50 nM	≥ 500 nM	≥ 500 nM
COc1c(Nc2cc(Nc3ccc(-c4ncn(C)n4)cn3)ncc2C(=O)C2CC2)cccc1-c1ncn(C)n1 [Compound 15N]	≥ 500 nM	5 to 50 nM	≥ 500 nM	≥ 500 nM
COc1c(-c2ncn(C)n2)ccnc1Nc1cc(Nc2ccc(-c3ncn(C)n3)cn2)ncc1C(=O)C1CC1 [Compound 15O]	≥ 500 nM	5 to 50 nM	≥ 500 nM	≥ 500 nM
CCC(=O)c1cnc(Nc2ccc(-n3ccnc3)cn2)cc1Nc1nccc(-c2ncn(C)n2)c1OC [Compound 15P]	≥ 500 nM	< 5 nM	≥ 500 nM	≥ 500 nM
COc1c(Nc2cc(Nc3ccc(-n4ccnc4)cn3)ncc2C(=O)C2CC2)cccc1-c1ncn(C)n1 [Compound 15Q]	≥ 500 nM	< 5 nM	≥ 500 nM	≥ 500 nM
COc1c(-c2ncn(C)n2)ccnc1Nc1cc(Nc2ccc(-n3ccnc3)cn2)ncc1C(=O)C1CC1 [Compound 15R]	≥ 500 nM	5 to 50 nM	≥ 500 nM	≥ 500 nM
CCC(=O)c1cnc(Nc2ccn(-c3ccccc3)c(=O)n2)cc1Nc1nccc(-c2ncn(C)n2)c1OC [Compound 15S]	≥ 500 nM	5 to 50 nM	≥ 500 nM	≥ 500 nM
[2H]C([2H])([2H])CC(=O)c1cnc(Nc2ccn(-c3ccccc3)c(=O)n2)cc1Nc1cccc(-c2ncn(C)n2)c1OC [Compound 15T]	≥ 500 nM	< 5 nM	≥ 500 nM	≥ 500 nM
CCC(=O)c1cnc(Nc2ccc(-n3ccccc3=O)cn2)cc1Nc1nccc(-c2ncn(C)n2)c1OC [Compound 15U]	≥ 500 nM	5 to 50 nM	≥ 500 nM	≥ 500 nM
CCC(=O)c1cnc(Nc2ccc(-n3ccncc3=O)cn2)cc1Nc1cccc(-c2ncn(C)n2)c1OC [Compound 15V]	≥ 500 nM	< 5 nM	≥ 500 nM	≥ 500 nM
CCC(=O)c1cnc(Nc2ccc(-c3ccc[nH]c3=O)cn2)cc1Nc1cccc(-c2ncn(C)n2)c1OC [Compound 15W]	50 to 500 nM	5 to 50 nM	50 to 500 nM	≥ 500 nM
